The results in this text go back to patent US11261190B2, “Dihydropyrimidine compounds and uses thereof in medicine” (SUNSHINE LAKE PHARMA CO., LTD., priority 2017, dated 2022).

Data set [1] is described as follows: PK test on SD rats. The class given is in vivo. The following applies: for AUC(0-inf) / AUC(0-t) / Tmax: male, rat, plasma. How it is done:
The PK test method of the compound in vivo of SD rats (purchased from Hunan slack Jing Da laboratory animal Co., Ltd, weight: […] male, ages of 2-3 months, 3 per oral group, 3 per intravenous injection group):
The Rats were administered intragastrically with the test compound at doses of 2.5 mg/kg or 5 mg/kg or administered intravenously with the test compound at doses of 1 mg/kg.
Blood samples were taken at 0.083, 0.25, 0.5, 1, 2, 5, 7 and 24 hours from vein after the administration, and collected in anticoagulation tube with EDTA-K2. The test compounds were extracted from plasma samples by liquid-liquid extraction. Then quantitative analysis was performed on a triple-quadrupole tandem mass spectrometer using multiple reaction monitoring (MRM). Pharmacokinetic parameters were calculated using a noncompartmental method by WinNonLin 6.3 software.

Data set [2] deals with HBV. The data set is described as follows: Anti HBV activity in vitro, viral DNA from HepG2.2.15 cells quantified by qPCR. The class given is cell-based. The conditions noted are these: Hepatitis B virus, qPCR of viral DNA in supernatant, read-out: EC50 against HBV replication. The method, then: Test 1: Test Method of EC50 of Anti HBV
HBV Cell Line and Culture Conditions
HepG2.2.15 (SELLS, PNAS, 1987 and SELLS, JV, 1988) chromosomes have an integrated complete HBV genome, and stably express viral RNA and viral protein. HepG2.2.15 cells can secrete mature HBV particles, HBsAg and HBeAg to medium. HepG2.2.15 cells were cultured in DMEM containing 10% fetal bovine serum, 100 U/mL penicillin, 100 U/mL streptomycin, 1% non essential amino acid, 1 mM sodium pyruvate and 300 µg/mL G418.
Viral particles DNA secreted from HepG2.2.15 cells can be quantified by qPCR, and the effect of the compound on viral replication can be detected.
Test of Anti HBV Activity In Vitro
8000 HepG 2.2.15 cells per well were seeded into a 96-well plate, the plate was cultured at 37° C. and 5% CO2 for 3 days till the cells grew to full wells. Old liquid medium can be removed and replaced with new medium (200 μL) on day 0.
Formulating the compound and treating the cells in the experiment of anti virus: the compound was dissolved in DMSO to a concentration of 30 mM, and then the compound solution was diluted with DMSO to a concentration of […], and then eight dilutions at 4 fold were performed, the highest concentration is 800 μM. The serial diluted compound was added to the above plate at 1 μL per well, the highest final concentration in the experiment is 4 μM (200 fold dilution). TDF (tenofovir dipiroxil fumarate, Selleck, Cat S1400) has a highest concentration of 4 μM as a positive control. 1 μL of DMSO was added in to the positive control well at a final concentration of 0.5%, TDF was added in to the positive control well at a final concentration of 1 μM.
Detection of Viral Genomic DNA by qPCR
Primer: HBV-For-202, […]; HBV-Rev-315, […]. Copies of virus can be calculated using a standard curve plotted by using plasmid containing HBV genome and using SYBR Premix Ex Taq II Takara DRR081S kit and 1 μL cell culture supernatant as a template. EC50 values of the compound on viral replication were calculated by a four parametric nonlinear regression model using Graphpad Prism 5 software to manage concentration—viral copy number.
Background: Quantitative PCR measures a nucleic acid by following its amplification.

The nature of data set [3]: Cytotoxicity in HepG2.2.15 cells (CellTiter Glo). The class given is cell-based. The conditions noted are these: human, highest concentration 150 μM. The method, then: Test 2: Cytotoxicity and Selectivity Index
Methods of Testing Cytotoxicity and Selectivity Index
The serial diluted compound was added to a 384 wells plate at 50 μL HepG2.2.15 cell per well (3000 cells per well), the highest final concentration in the experiment is 150 μM (200 fold dilution). The plate was cultured at 37° C. in an incubator with C02 for 4 days, and cytotoxicity of the compound was detected using CellTiter Glo agent.
The cytotoxicity of the compound was calculated using the following formulate, cytotoxicity (%)=100−(detection value/mean of DMSO control wells values×100). CC50 values were calculated by a four parametric nonlinear regression model using Graphpad Prism 5 software to manage concentration−cytotoxicity (%). […]
(In general: ATP-based viability assays read luminescence as a measure of living cells.)

As for `COC(=O)C1=C(CN2CCN3C(=O)N(c4ccc(CC(=O)O)cc4)C[C@@H]3C2)NC(c2nccs2)=N[C@H]1c1ccc(F)cc1Cl` [Example 14, 2-(4-((S)-7-(((R)-6-(2-chloro-4-fluorophenyl)-5-(methoxycarbonyl)-2-(thiazol-2-yl)-3,6-dihydropyrimidin-4-yl)methyl)-3-oxohexahydroimidazo[1,5-a]pyrazin-2(3H)-yl)phenyl)acetic Acid], in data set [1] (iv, 1 mg/kg), the AUC(0-inf) worked out at 684 ng·h/mL, the AUC(0-t) stood at 680 ng·h/mL and the Tmax amounted to 4.98 min. Also, in data set [1] (po, 5 mg/kg), the area under the curve AUC(0-inf) turned out to be 2250 ng·h/mL, the AUC(0-t) was 2250 ng·h/mL, the Tmax was determined as 30 min and the F was determined as 44%. Besides, in data set [2], the EC50 amounted to 7 nM. Also, in data set [3], the CC50 at 4 days is over 150 µM.

Turning to `COC(=O)C1=C(CN2CCN3C(=O)N(c4ccc(C(C)(C)C(=O)O)cc4)C[C@@H]3C2)NC(c2nccs2)=N[C@H]1c1ccc(F)cc1Cl` [Example 15, 2-(4-((S)-7-(((R)-6-(2-chloro-4-fluorophenyl)-5-(methoxycarbonyl)-2-(thiazol-2-yl)-3,6-dihydropyrimidin-4-yl)methyl)-3-oxohexahydroimidazo[1,5-a]pyrazin-2(3H)-yl)phenyl)-2-methylpropionic Acid], the EC50 in data set [2] was found to be 5 nM. In data set [3], this compound had a CC50 at 4 days of over 150 µM.

In the case of `COC(=O)C1=C(CN2CCN3C(=O)N(c4ccc(CCC(N)=O)cc4)C[C@@H]3C2)NC(c2nccs2)=N[C@H]1c1ccc(F)cc1Cl` [Example 48, (R)-methyl 6-(((S)-2-(4-(3-amino-3-oxopropyl)phenyl)-3-oxohexahydroimidazo[1,5-a]pyrazin-7(1H)-yl)methyl)-4-(2-chloro-4-fluorophenyl)-2-(thiazol-2-yl)-1,4-dihydropyrimidine-5-carboxylate], the EC50 in data set [2] stood at 10 nM. The cytotoxic concentration (CC50) at 4 days in data set [3] was over 150 µM.

On to `COC(=O)C1=C(CN2CCN3C(=O)N(c4ccc(C(CC(=O)O)NC(=O)OC(C)(C)C)cc4)C[C@@H]3C2)NC(c2nccs2)=N[C@H]1c1ccc(F)cc1Cl` (stereo partly drawn) [Example 16, 3-((tert-butoxycarbonyl)amino)-3-(4-((S)-7-(((R)-6-(2-chloro-4-fluorophenyl)-5-(methoxycarbonyl)-2-(thiazol-2-yl)-3,6-dihydropyrimidin-4-yl)methyl)-3-oxohexahydroimidazo[1,5-a]pyrazin-2 (3H)-yl)phenyl)propanoic Acid], for which the concentration giving a half-maximal response (EC50) in data set [2] stood at 14 nM. This compound also gave a CC50 at 4 days in data set [3] of over 150 µM.

Turning to `CCOC(=O)C1=C(CN2CCN3C(=O)N(c4ccc(CC(C)(C)C(=O)O)cc4)C[C@@H]3C2)NC(c2nccs2)=N[C@H]1c1ccc(F)cc1Cl` [Example 29, 3-(4-((S)-7-(((R)-6-(2-chloro-4-fluorophenyl)-5-(ethoxycarbonyl)-2-(thiazol-2-yl)-3,6-dihydropyrimidin-4-yl)methyl)-3-oxohexahydroimidazo[1,5-a]pyrazin-2(3H)-yl)phenyl)-2,2-dimethylpropionic Acid], in data set [2], the EC50 is 6 nM. Also, the CC50 at 4 days in data set [3] was over 150 µM.

For the compound `COC(=O)C1=C(CN2CCN3C(=O)N(c4ccc(C(C)(C)C(=O)O)cc4F)C[C@@H]3C2)NC(c2nccs2)=N[C@H]1c1ccc(F)cc1Cl` [Example 33, 2-(4-((S)-7-(((R)-6-(2-chloro-4-fluorophenyl)-5-(methoxycarbonyl)-2-(thiazol-2-yl)-3,6-dihydropyrimidin-4-yl)methyl)-3-oxohexahydroimidazo[1,5-a]pyrazin-2(3H)-yl)-3-fluorophenyl)-2-methylpropionic Acid], the 50% effective concentration (EC50) in data set [2] is 25 nM. In data set [3], this compound returned a 50% cytotoxic concentration (CC50) at 4 days of over 150 µM.

On to `COC[C@@H]1[C@H]2CN(c3ccc(CCC(=O)O)cc3)C(=O)N2CCN1CC1=C(C(=O)OC)[C@H](c2ccc(F)cc2Cl)N=C(c2nccs2)N1` [Example 51B], for which the concentration giving a half-maximal response (EC50) in data set [2] came out at 9 nM. This compound showed a CC50 at 4 days in data set [3] of over 150 µM.

On to `COC(=O)C1=C(CN2CCN3C(=O)N(c4ccc(/C(C)=C/C(=O)O)cc4)C[C@@H]3C2)NC(c2nccs2)=N[C@H]1c1ccc(F)cc1Cl` [Example 54, (E)-3-(4-((S)-7-(((R)-6-(2-chloro-4-fluorophenyl)-5-(methoxycarbonyl)-2-(thiazol-2-yl)-3,6-dihydropyrimidin-4-yl)methyl)-3-oxohexahydroimidazo[1,5-a]pyrazin-2(3H)-yl)phenyl)-2-butenoic Acid], for which, in data set [2], the EC50 was 11 nM. The compound further gave a cytotoxic concentration (CC50) at 4 days in data set [3] of over 150 µM.

With `COC(=O)C1=C(CN2CCN3C(=O)N(c4nc(CCC(=O)O)cs4)C[C@@H]3C2)NC(c2nccs2)=N[C@H]1c1ccc(F)cc1Cl` [Example 20, 3-(2-((S)-7-(((R)-6-(2-chloro-4-fluorophenyl)-5-(methoxycarbonyl)-2-(thiazol-2-yl)-3,6-dihydropyrimidin-4-yl)methyl)-3-oxohexahydroimidazo[1,5-a]pyrazin-2(3H)-yl)thiazol-4-yl)propionic Acid], in data set [2], the EC50 came out at 5 nM. Also, the CC50 at 4 days in data set [3] is over 150 µM.

Consider `COC(=O)C1=C(CN2CCN3C(=O)N(c4ccc(/C=C/C(=O)O)cc4)C[C@@H]3C2)NC(c2nccs2)=N[C@H]1c1ccc(F)cc1Cl` [Example 47, (E)-3-(4-((S)-7-(((R)-6-(2-chloro-4-fluorophenyl)-5-(methoxycarbonyl)-2-(thiazol-2-yl)-3,6-dihydropyrimidin-4-yl)methyl)-3-oxohexahydroimidazo[1,5-a]pyrazin-2(3H)-yl)phenyl)acrylic Acid], for which, in data set [2], the EC50 amounted to 3 nM. Also, the 50% cytotoxic concentration (CC50) at 4 days in data set [3] was over 150 µM.

For the compound `CCOC(=O)C1=C(CN2CCN3C(=O)N(c4ccc(CC(=O)O)cc4)C[C@@H]3C2)NC(c2nccs2)=N[C@H]1c1ccc(F)cc1Br` [Example 26, 2-(4-((S)-7-(((R)-6-(2-bromo-4-fluorophenyl)-5-(ethoxycarbonyl)-2-(thiazol-2-yl)-3,6-dihydropyrimidin-4-yl)methyl)-3-oxohexahydroimidazo[1,5-a]pyrazin-2(3H)-yl)phenyl)acetic Acid], the EC50 in data set [2] came out at 8 nM. The same compound had a cytotoxic concentration (CC50) at 4 days in data set [3] of over 150 µM.

For `COC(=O)C1=C(CN2CCN3C(=O)N(c4ccc(CCC(=O)O)cc4)C[C@@H]3C2)NC(c2nccn2C)=NC1c1ccc(F)cc1Cl` (stereo partly drawn) [Example 45, 3-(4-((8aS)-7-((-6-(2-chloro-4-fluorophenyl)-5-(methoxycarbonyl)-2-(1-methyl-1H-imidazol-2-yl)-3,6-dihydropyrimidin-4-yl)methyl)-3-oxohexahydroimidazo[1,5-a]pyrazin-2(3H)-yl)phenyl)propionic Acid], in data set [2], the 50% effective concentration (EC50) was found to be 8 nM. This compound also came in with a CC50 at 4 days in data set [3] of over 150 µM.

As to `COC(=O)C1=C(CN2CCN3C(=O)N(c4ccc(C(NC(=O)OC(C)(C)C)C(=O)O)cc4)C[C@@H]3C2)NC(c2nccs2)=N[C@H]1c1ccc(F)cc1Cl` (stereo partly drawn) [Example 46, 2-((tert-butoxycarbonyl)amino)-2-(4-((S)-7-(((R)-6-(2-chloro-4-fluorophenyl)-5-(methoxycarbonyl)-2-(thiazol-2-yl)-3,6-dihydropyrimidin-4-yl)methyl)-3-oxohexahydroimidazo[1,5-a]pyrazin-2(3H)-yl)phenyl)acetic Acid], the EC50 in data set [2] amounted to 22 nM. Also, the CC50 at 4 days in data set [3] is over 150 µM.

As usually defined, the AUC(0-inf) is total exposure, with the tail of the curve extrapolated. The AUC(0-t) is exposure summed from dosing to a finite time, without extrapolation to infinity. By Tmax is commonly meant the time from dosing to the highest level. The EC50 is the concentration at which the effect is half-maximal. Usually CC50 stands for the concentration that lowers cell viability or growth by half. Higher therefore signals lower toxicity to the cells.
